According to US20260027179A1, “ANTI-SYNUCLEINOPATHY PEPTIDE AND METHODS TO TREAT NEURODEGENERATIVE DISEASES” (University of British Columbia, priority 2021, published 2026):

System: C57BL/6 mice
Assay: MPTP mouse model, rotarod test
Format: in vivo
Details: peptide 6 μmol/kg i.p. twice a day for 12 days, vs MPTP group
Method: C57BL/6 mice (20-25 g) received intraperitoneal (i.p.) injection of 30 mg/kg parkinsonian toxin MPTP hydrochloride once a day for 5 days to induce dopaminergic neuron death in the substantia nigra, while the control mice received equal volumes of saline injection. 6 μmol/kg Tat-βsyn-degron peptide or control Tat-βsyn peptide was i.p. injected into the MPTP-treated mice every 12 hrs from the first day of MPTP injection until 7 days after the last injection of MPTP. All groups of mice then underwent a rotarod test before they were sacrificed.
The rotarod test was performed as previously described (Heldermon, C. D. et al., PloS one 2, e772, doi:10.1371/journal.pone.0000772 (2007)), with modifications. Briefly, 6 days after the last MPTP injection, all mice received 4 rounds of training on the rotarod (Stoelting Co.). In the first two rounds of training, the rotarod was maintained at constant speed of 20 rpm for 3 min. In the second two rounds of training, the rotarod reversed rotation direction every 3 turns at the constant speed of 20 rpm for 3 min. […] Mice were tested 10 times at 20 min intervals, and the time that they remained on the rotarod during each test was recorded. […] The motor performance of the mouse was expressed as the latency to fall off the rotarod.

For “YGRKKRRQRRRRTKSGVYLVGRRRG (The sequence is synthesized (YGRKKRRQRRRRTKSGVYLVGRRRG)) [Tat-βsyn-degron]”, the “MPTP-induced motor deficits (latency to fall off the rotarod)” value was “significantly reduced”.
